Source: PMC9262839 (Cancer Discovery, 2022)

Columns and labels:
[1] = target: 117 recombinant human kinases; assay: Kinase panel assay, single-point screen of the whole panel; type: biochemical; conditions: 1 μmol/L
[2] = Phase I clinical studies; type: in vivo, human

Structure (SMILES): C=CC(=O)Nc1cc(Nc2nccc(Nc3cc(Cl)c(F)cc3C(C)(C)O)n2)c(OC)cc1N1CC[C@@H](N(C)C)C1 [sunvozertinib]
- kinases of 117 inhibited by >50% [1]: 15
- Patients with any TEAE ([2]; 50 mg (n = 6)): 6 (100.0) n (%)
- Patients with any TEAE leading to death ([2]; 50 mg (n = 6)): 0 (0.0) n (%)
- Patients with any TEAE leading to dose reduction ([2]; 50 mg (n = 6)): 0 (0.0) n (%)
- Patients with any TEAE leading to drug interruption ([2]; 50 mg (n = 6)): 0 (0.0) n (%)
- Patients with any TEAE leading to treatment discontinuation ([2]; 50 mg (n = 6)): 0 (0.0) n (%)
- Patients with any TEAE with CTCAE grade ≥3 ([2]; 50 mg (n = 6)): 2 (33.3) n (%)
- Patients with any drug-related AE ([2]; 50 mg (n = 6)): 6 (100.0) n (%)
- Patients with any drug-related AE leading to death ([2]; 50 mg (n = 6)): 0 (0.0) n (%)
- Patients with any drug-related AE leading to dose reduction ([2]; 50 mg (n = 6)): 0 (0.0) n (%)
- Patients with any drug-related AE leading to drug interruption ([2]; 50 mg (n = 6)): 0 (0.0) n (%)
- Patients with any drug-related AE leading to treatment discontinuation ([2]; 50 mg (n = 6)): 0 (0.0) n (%)
- Patients with any drug-related AE with CTCAE grade ≥3 ([2]; 50 mg (n = 6)): 1 (16.7) n (%)
- Patients with any drug-related SAE ([2]; 50 mg (n = 6)): 0 (0.0) n (%)
- Patients with any treatment-emergent SAE ([2]; 50 mg (n = 6)): 0 (0.0) n (%)
- Patients with any TEAE ([2]; 100 mg (n = 9)): 9 (100.0) n (%)
- Patients with any TEAE leading to death ([2]; 100 mg (n = 9)): 0 (0.0) n (%)
- Patients with any TEAE leading to dose reduction ([2]; 100 mg (n = 9)): 0 (0.0) n (%)
- Patients with any TEAE leading to drug interruption ([2]; 100 mg (n = 9)): 2 (22.2) n (%)
- Patients with any TEAE leading to treatment discontinuation ([2]; 100 mg (n = 9)): 1 (11.1) n (%)
- Patients with any TEAE with CTCAE grade ≥3 ([2]; 100 mg (n = 9)): 2 (22.2) n (%)
- Patients with any drug-related AE ([2]; 100 mg (n = 9)): 8 (88.9) n (%)
- Patients with any drug-related AE leading to death ([2]; 100 mg (n = 9)): 0 (0.0) n (%)
- Patients with any drug-related AE leading to dose reduction ([2]; 100 mg (n = 9)): 0 (0.0) n (%)
- Patients with any drug-related AE leading to drug interruption ([2]; 100 mg (n = 9)): 1 (11.1) n (%)
- Patients with any drug-related AE leading to treatment discontinuation ([2]; 100 mg (n = 9)): 0 (0.0) n (%)
- Patients with any drug-related AE with CTCAE grade ≥3 ([2]; 100 mg (n = 9)): 1 (11.1) n (%)
- Patients with any drug-related SAE ([2]; 100 mg (n = 9)): 0 (0.0) n (%)
- Patients with any treatment-emergent SAE ([2]; 100 mg (n = 9)): 2 (22.2) n (%)
- Patients with any TEAE ([2]; 200 mg (n = 16)): 16 (100.0) n (%)
- Patients with any TEAE leading to death ([2]; 200 mg (n = 16)): 0 (0.0) n (%)
- Patients with any TEAE leading to dose reduction ([2]; 200 mg (n = 16)): 0 (0.0) n (%)
- Patients with any TEAE leading to drug interruption ([2]; 200 mg (n = 16)): 2 (12.5) n (%)
- Patients with any TEAE leading to treatment discontinuation ([2]; 200 mg (n = 16)): 0 (0.0) n (%)
- Patients with any TEAE with CTCAE grade ≥3 ([2]; 200 mg (n = 16)): 2 (12.5) n (%)
- Patients with any drug-related AE ([2]; 200 mg (n = 16)): 16 (100.0) n (%)
- Patients with any drug-related AE leading to death ([2]; 200 mg (n = 16)): 0 (0.0) n (%)
- Patients with any drug-related AE leading to dose reduction ([2]; 200 mg (n = 16)): 0 (0.0) n (%)
- Patients with any drug-related AE leading to drug interruption ([2]; 200 mg (n = 16)): 1 (6.3) n (%)
- Patients with any drug-related AE leading to treatment discontinuation ([2]; 200 mg (n = 16)): 0 (0.0) n (%)
- Patients with any drug-related AE with CTCAE grade ≥3 ([2]; 200 mg (n = 16)): 1 (6.3) n (%)
- Patients with any drug-related SAE ([2]; 200 mg (n = 16)): 1 (6.3) n (%)
- Patients with any treatment-emergent SAE ([2]; 200 mg (n = 16)): 3 (18.8) n (%)
- Patients with any TEAE ([2]; 300 mg (n = 51)): 51 (100.0) n (%)
- Patients with any TEAE leading to death ([2]; 300 mg (n = 51)): 2 (3.9) n (%)
- Patients with any TEAE leading to dose reduction ([2]; 300 mg (n = 51)): 6 (11.8) n (%)
- Patients with any TEAE leading to drug interruption ([2]; 300 mg (n = 51)): 16 (31.4) n (%)
- Patients with any TEAE leading to treatment discontinuation ([2]; 300 mg (n = 51)): 4 (7.8) n (%)
- Patients with any TEAE with CTCAE grade ≥3 ([2]; 300 mg (n = 51)): 20 (39.2) n (%)
- Patients with any drug-related AE ([2]; 300 mg (n = 51)): 49 (96.1) n (%)
- Patients with any drug-related AE leading to death ([2]; 300 mg (n = 51)): 1 (2.0) n (%)
- Patients with any drug-related AE leading to dose reduction ([2]; 300 mg (n = 51)): 6 (11.8) n (%)
- Patients with any drug-related AE leading to drug interruption ([2]; 300 mg (n = 51)): 14 (27.5) n (%)
- Patients with any drug-related AE leading to treatment discontinuation ([2]; 300 mg (n = 51)): 4 (7.8) n (%)
- Patients with any drug-related AE with CTCAE grade ≥3 ([2]; 300 mg (n = 51)): 17 (33.3) n (%)
- Patients with any drug-related SAE ([2]; 300 mg (n = 51)): 9 (17.6) n (%)
